According to patent US9777005B2 (Takeda Pharmaceutical Company Limited, priority 2012, dated 2017):
Where a name gives a salt, the structure may show the parent alone. Each block holds one compound with its values, some of them ahead of it.

Target: T1, human M1 receptor (hCHRM1) (Homo sapiens, UniProt P11229)
T1 construct: expressed in transfected cells; host or cells: CHO-K1
T1 sequence (P11229 1-460): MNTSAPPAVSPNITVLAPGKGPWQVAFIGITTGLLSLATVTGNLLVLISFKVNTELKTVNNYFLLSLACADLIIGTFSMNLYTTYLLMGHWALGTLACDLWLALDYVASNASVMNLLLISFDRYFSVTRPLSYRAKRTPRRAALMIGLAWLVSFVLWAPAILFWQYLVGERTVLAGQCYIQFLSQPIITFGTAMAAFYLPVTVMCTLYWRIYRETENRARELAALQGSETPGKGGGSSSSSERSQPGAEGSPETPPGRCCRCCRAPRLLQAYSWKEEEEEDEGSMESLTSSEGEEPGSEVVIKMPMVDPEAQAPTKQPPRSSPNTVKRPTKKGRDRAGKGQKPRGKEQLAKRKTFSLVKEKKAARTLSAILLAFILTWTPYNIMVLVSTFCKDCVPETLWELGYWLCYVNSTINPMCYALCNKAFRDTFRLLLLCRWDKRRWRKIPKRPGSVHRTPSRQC
Test: Measurement of M1 receptor positive allosteric modulator (M1PAM) activity, calcium fluorescence (FLIPRtetra) in CHO-K1 cells in the presence of acetylcholine at EC20
Assay type: cell-based
Conditions: in the presence of acetylcholine at EC20 (final 0.6 nM), CHO-K1 cells expressing hCHRM1; for EC50: inflection point of M1PAM activity, read-out: IP value; for activity (%) at 10 μM: test compound 10 μM
Method in brief: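 PAM activity was measured as calcium flux by FLIPRtetra over 1 min after co-addition of compound and EC20 acetylcholine (final 0.6 nM) to Fluo-4-loaded hCHRM1 CHO-K1 cells. The response was scaled between DMSO (0%) and 1 μM acetylcholine (100%), and the inflection point of the concentration curve gives the IP value.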

SMILES: CNC(=O)c1ccc(CN2Cc3ccnc(Oc4ccc(CC(F)(F)F)cc4F)c3C2=O)cc1 [Example 457, 4-((4-(2-fluoro-4-(2,2,2-trifluoroethyl)phenoxy)-3-oxo-1,3-dihydro-2H-pyrrolo[3,4-c]pyridin-2-yl)methyl)-N-methylbenzamide]
EC50: 0.0086 µM | activity (%) at 10 μM: 91%

SMILES: Cn1cc(-c2ccc(CN3Cc4ccnc(Oc5ccc(CC#N)cc5F)c4C3=O)cc2)cn1 [Example 405, (3-fluoro-4-((2-(4-(1-methyl-1H-pyrazol-4-yl)benzyl)-3-oxo-2,3-dihydro-1H-pyrrolo[3,4-c]pyridin-4-yl)oxy)phenyl)acetonitrile]
EC50: 0.0018 µM | activity (%) at 10 μM: 95%

SMILES: CCC(O)COc1nccc2c1C(=O)N(Cc1ccc(-c3cn(C)nc3C)cc1)C2 (single isomer, unassigned) [Example 277, 2-(4-(1,3-dimethyl-1H-pyrazol-4-yl)benzyl)-4-(2-hydroxybutoxy)-1,2-dihydro-3H-pyrrolo[3,4-c]pyridin-3-one]
EC50: 0.042 µM | activity (%) at 10 μM: 96%

SMILES: CCCc1ccc(Oc2nccc3c2C(=O)N(Cc2ccc(C(=O)NC)nc2)C3)c(F)c1 [Example 455, 5-((4-(2-fluoro-4-propylphenoxy)-3-oxo-1,3-dihydro-2H-pyrrolo[3,4-c]pyridin-2-yl)methyl)-N-methylpyridine-2-carboxamide]
EC50: 0.06 µM | activity (%) at 10 μM: 86%

SMILES: Cc1nn(C)cc1-c1ccc(CN2Cc3ncnc(OC4CCC4)c3C2=O)cc1 [Example 323, 4-(cyclobutyloxy)-6-(4-(1,3-dimethyl-1H-pyrazol-4-yl)benzyl)-6,7-dihydro-5H-pyrrolo[3,4-d]pyrimidin-5-one]
EC50: 0.021 µM | activity (%) at 10 μM: 89%

SMILES: O=C1c2c(ccnc2OCC2CCCO2)CN1Cc1ccc(-c2cnn(CC3CC3)c2)cc1 (stereo not shown) [Example 288, 2-(4-(1-(cyclopropylmethyl)-1H-pyrazol-4-yl)benzyl)-4-((tetrahydrofuran-2-yl)methoxy)-1,2-dihydro-3H-pyrrolo[3,4-c]pyridin-3-one]
EC50: 0.012 µM | activity (%) at 10 μM: 103%

SMILES: Cn1ccc(-c2ccc(CN3Cc4ccnc(Oc5ccc(C#N)cc5F)c4C3=O)cc2)n1 [Example 374, 3-fluoro-4-((2-(4-(1-methyl-1H-pyrazol-3-yl)benzyl)-3-oxo-2,3-dihydro-1H-pyrrolo[3,4-c]pyridin-4-yl)oxy)benzonitrile]
EC50: 0.016 µM | activity (%) at 10 μM: 103%

SMILES: O=C1c2c(ccnc2O[C@H]2CCC[C@@H]2O)CN1Cc1ccc(-n2cccn2)cc1 (relative stereo) [Example 77, 4-((trans-2-hydroxycyclopentyl)oxy)-2-(4-(1H-pyrazol-1-yl)benzyl)-1,2-dihydro-3H-pyrrolo[3,4-c]pyridin-3-one]
EC50: 0.039 µM | activity (%) at 10 μM: 103%

SMILES: CCc1cc(F)c(Oc2nccc3c2C(=O)N(Cc2ccc(-n4cnc(C)c4)cc2)C3)c(F)c1 [Example 429, 4-(4-ethyl-2,6-difluorophenoxy)-2-(4-(4-methyl-1H-imidazol-1-yl)benzyl)-1,2-dihydro-3H-pyrrolo[3,4-c]pyridin-3-one]
EC50: 0.011 µM | activity (%) at 10 μM: 109%

SMILES: Cn1ccc(-c2ccc(CN3Cc4ccnc(Oc5ccc(C(F)F)cc5F)c4C3=O)cc2)n1 [Example 380, 4-(4-(difluoromethyl)-2-fluorophenoxy)-2-(4-(1-methyl-1H-pyrazol-3-yl)benzyl)-1,2-dihydro-3H-pyrrolo[3,4-c]pyridin-3-one]
EC50: 0.022 µM | activity (%) at 10 μM: 102%

SMILES: Cc1cc(-c2ccc(CN3Cc4ccnc(Oc5ccc(C(F)F)cc5F)c4C3=O)cc2)ccn1 [Example 379, 4-(4-(difluoromethyl)-2-fluorophenoxy)-2-(4-(2-methylpyridin-4-yl)benzyl)-1,2-dihydro-3H-pyrrolo[3,4-c]pyridin-3-one]
EC50: 0.014 µM | activity (%) at 10 μM: 90%

SMILES: Cc1cc(-c2ccc(CN3Cc4ccnc(Oc5c(F)cc(F)cc5C5CC5)c4C3=O)cc2)cnn1 [Example 361, 4-(2-cyclopropyl-4,6-difluorophenoxy)-2-(4-(6-methylpyridazin-4-yl)benzyl)-1,2-dihydro-3H-pyrrolo[3,4-c]pyridin-3-one]
EC50: 0.076 µM | activity (%) at 10 μM: 100%

Other lines, results leading:

EC50: 0.07 µM | activity (%) at 10 μM: 106%
SMILES: Cc1cc(-c2ccc(CN3Cc4ccnc(OCC5CC5)c4C3=O)cc2)ccn1 [Example 339, 4-(cyclopropylmethoxy)-2-(4-(2-methylpyridin-4-yl)benzyl)-1,2-dihydro-3H-pyrrolo[3,4-c]pyridin-3-one]

EC50: 0.071 µM | activity (%) at 10 μM: 90%
SMILES: Cn1cc(-c2ccc(CN3Cc4cccc(Oc5ccc(C(O)C(F)(F)F)cc5F)c4C3=O)cn2)cn1 (stereo not shown) [Example 390, 7-(2-fluoro-4-(2,2,2-trifluoro-1-hydroxyethyl)phenoxy)-2-((6-(1-methyl-1H-pyrazol-4-yl)pyridin-3-yl)methyl)isoindolin-1-one]

EC50: 0.0044 µM | activity (%) at 10 μM: 94%
SMILES: O=C1c2c(cccc2O[C@H]2CCCC[C@@H]2O)CN1Cc1ccc(-c2ccnnc2)cc1 (relative stereo) [Example 352, 7-((trans-2-hydroxycyclohexyl)oxy)-2-(4-(pyridazin-4-yl)benzyl)isoindolin-1-one]

EC50: 0.004 µM | activity (%) at 10 μM: 101%
SMILES: Cc1nn(C)cc1-c1ccc(CN2Cc3ccnc(O[C@@H]4CCC[C@H]4O)c3C2=O)cc1 (single isomer, unassigned) [Example 256, 2-(4-(1,3-dimethyl-1H-pyrazol-4-yl)benzyl)-4-((trans-2-hydroxycyclopentyl)oxy)-1,2-dihydro-3H-pyrrolo[3,4-c]pyridin-3-one]

EC50: 0.069 µM | activity (%) at 10 μM: 103%
SMILES: Cc1cc(C)c(Oc2nccc3c2C(=O)N(Cc2ccc(-c4ccn(C)n4)cc2)C3)c(F)c1 [Example 414, 4-(2-fluoro-4,6-dimethylphenoxy)-2-(4-(1-methyl-1H-pyrazol-3-yl)benzyl)-1,2-dihydro-3H-pyrrolo[3,4-c]pyridin-3-one]

EC50: 0.019 µM | activity (%) at 10 μM: 99%
SMILES: CCn1cc(-c2ccc(CN3Cc4ncnc(OC5CCC5)c4C3=O)cc2)cn1 [Example 324, 4-(cyclobutyloxy)-6-(4-(1-ethyl-1H-pyrazol-4-yl)benzyl)-6,7-dihydro-5H-pyrrolo[3,4-d]pyrimidin-5-one]

EC50: 0.047 µM | activity (%) at 10 μM: 116%
SMILES: O=C1c2c(ccnc2OCC2CCCO2)CN1Cc1ccc(-c2ccnc(C(F)(F)F)c2)cc1 (stereo not shown) [Example 325, 4-((tetrahydrofuran-2-yl)methoxy)-2-(4-(2-(trifluoromethyl)pyridin-4-yl)benzyl)-1,2-dihydro-3H-pyrrolo[3,4-c]pyridin-3-one]

EC50: 0.017 µM | activity (%) at 10 μM: 100%
SMILES: CCc1ccc(Oc2nccc3c2C(=O)N(Cc2ccc(C(=O)NC)cc2)C3)c(F)c1 [Example 444, 4-((4-(4-ethyl-2-fluorophenoxy)-3-oxo-1,3-dihydro-2H-pyrrolo[3,4-c]pyridin-2-yl)methyl)-N-methylbenzamide]

EC50: 0.0093 µM | activity (%) at 10 μM: 99%
SMILES: CCc1ccc(Oc2nccc3c2C(=O)N(Cc2ccc(C(N)=O)cc2)C3)c(F)c1 [Example 449, 4-((4-(4-ethyl-2-fluorophenoxy)-3-oxo-1,3-dihydro-2H-pyrrolo[3,4-c]pyridin-2-yl)methyl)benzamide]

EC50: 0.05 µM | activity (%) at 10 μM: 95%
SMILES: NC(=O)c1ccc(CN2Cc3cccc(Oc4ccc(C(F)(F)F)cc4F)c3C2=O)cc1F [Example 461, 2-fluoro-4-((7-(2-fluoro-4-(trifluoromethyl)phenoxy)-1-oxo-1,3-dihydro-2H-isoindol-2-yl)methyl)benzamide]

EC50: 0.085 µM | activity (%) at 10 μM (hydrochloride): 109%
SMILES: Cc1cc(-c2ccc(CN3Cc4ccnc(O[C@@H]5CCC[C@H]5O)c4C3=O)cc2)ccn1 (single isomer, unassigned) [Example 259, 4-((trans-2-hydroxycyclopentyl)oxy)-2-(4-(2-methylpyridin-4-yl)benzyl)-1,2-dihydro-3H-pyrrolo[3,4-c]pyridin-3-one hydrochloride]

EC50: 0.033 µM | activity (%) at 10 μM: 99%
SMILES: Cn1cc(-c2ccc(CN3Cc4cccc(OCCN5CCCC5)c4C3=O)cc2)cn1 [Example 8, 2-(4-(1-methyl-1H-pyrazol-4-yl)benzyl)-7-(2-(pyrrolidin-1-yl)ethoxy)isoindolin-1-one]

EC50: 0.012 µM | activity (%) at 10 μM: 104%
SMILES: Cn1cc(-c2ccc(CN3Cc4ccnc(OC5c6ncccc6CC5(C)C)c4C3=O)cc2)cn1 (stereo not shown) [Example 349, 4-((6,6-dimethyl-6,7-dihydro-5H-cyclopenta[b]pyridin-7-yl)oxy)-2-(4-(1-methyl-1H-pyrazol-4-yl)benzyl)-1,2-dihydro-3H-pyrrolo[3,4-c]pyridin-3-one]

EC50: 0.016 µM | activity (%) at 10 μM: 100%
SMILES: Cc1cc(-c2ccc(CN3Cc4ncnc(Oc5ccc(C(F)(F)F)cc5F)c4C3=O)cc2)cnn1 [Example 311, 4-(2-fluoro-4-(trifluoromethyl)phenoxy)-6-(4-(6-methylpyridazin-4-yl)benzyl)-6,7-dihydro-5H-pyrrolo[3,4-d]pyrimidin-5-one]
